Our source for the IC50 and Inhibition values is ChEMBL document CHEMBL1135985, “Synthesis, pharmacokinetics, efficacy, and rat retinal toxicity of a novel mitomycin C-triamcinolone acetonide conjugate” (J Med Chem, 2002).

The subject of assay [1] is NIH3T3. As to the kind of experiment: Inhibition of NIH 3T3 cell growth required to induce 50% of maximum response using antiproliferative assay. It is filed as functional, cell-based. As to conditions: Mus musculus.
Assay [2] concerns NIH3T3. Briefly: Maximal percent of fibroblast cell growth inhibition using antiproliferative assay. It is filed as functional, Mus musculus.

Structures are written as SMILES.

For orientation: IC50 means the point on the concentration scale where inhibition reaches its midpoint. Lower therefore signals greater potency. One may read the Inhibition as the share of the control response that was lost under treatment. A higher Inhibition goes with a strong effect. In the assay on NIH3T3 [1], `CO[C@@]12[C@H](COC(N)=O)C3=C(C(O)=C(C)C(=N)C3=O)N1C[C@H]1[C@@H]2N1C(=O)CCCC(=O)OCC(=O)[C@@]12OC(C)(C)O[C@@H]1CC1C3CCC4=CC(=O)C=C[C@]4(C)[C@@]3(F)[C@@H](O)C[C@@]12C` (stereo partly drawn) had a concentration for half-maximal inhibition (IC50) of 2.4 µM. The Inhibition in the assay on NIH3T3 [2] worked out at 67%.

`CO[C@@]12[C@H](COC(N)=O)C3=C(C(=O)C(C)=C(N)C3=O)N1C[C@@H]1N[C@@H]12` [MITOMYCIN] came in with an IC50 in the assay with NIH3T3 [1] of 1.7 µM. This molecule showed an Inhibition with NIH3T3 [2] of 88%.

`CC1(C)O[C@@H]2CC3C4CCC5=CC(=O)C=C[C@]5(C)[C@@]4(F)[C@@H](O)C[C@]3(C)[C@]2(C(=O)CO)O1.CO[C@@]12[C@H](COC(N)=O)C3=C(C(=O)C(C)=C(N)C3=O)N1C[C@@H]1N[C@@H]12` (stereo partly drawn) [MIXTURE OF MMC AND TA]: the IC50 in the assay with NIH3T3 [1] turned out to be 1.6 µM. In the assay with NIH3T3 [2], this molecule registered an Inhibition of 83%.

For `CC1(C)O[C@@H]2C[C@H]3[C@@H]4CCC5=CC(=O)C=C[C@]5(C)[C@@]4(F)[C@@H](O)C[C@]3(C)[C@]2(C(=O)CO)O1` [TRIAMCINOLONE ACETONIDE], in the assay with NIH3T3 [1], the IC50 is 2.5 µM. Also, the Inhibition with NIH3T3 [2] turned out to be 25%.
